Measured values: patent US20260285857A1, “BICYCLIC AND HETEROCYCLIC AMIDE COMPOUNDS” (priority 2024, published 2026)

Tested on: immunoglobulin light chain protein WIL-FL T46L
Experiment: Differential scanning fluorimetry (thermal shift) assay
Type: binding
Conditions: temperature shift [Tm]compound-[Tm]vehicle, recombinant WIL-FL T46L

Cc1cc(N2CCC(C)(n3cc(C(F)(F)F)cn3)C2)cn2nc(C(=O)N3CC[C@@]4(CCN(c5cccc(C(=O)O)n5)C4)C3)nc12 (stereo partly drawn) [Compound 744, 6-[(5R)-2-[8-methyl-6-[3-methyl-3-[4-(trifluoromethyl)pyrazol-1-yl]pyrrolidin-1-yl]-[1,2,4]triazolo[1,5-a]pyridine-2-carbonyl]-2,7-diazaspiro[4.4]nonan-7-yl]pyridine-2-carboxylic acid]
DSF (Table B): ***** (>2.5° C.=*****)

Cc1ccn(C2(C)CCN(c3cc(C)c4nc(C(=O)N5CC[C@@]6(CCN(c7cccc(C(=O)O)n7)C6)C5)nn4c3)C2)n1 (stereo partly drawn) [Compound 745]
DSF (Table B): *** (>1-1.5° C.=***)

Cc1cc(N2CC[C@](C)(c3cccc(Cl)c3)C2)cn2nc(C(=O)N3CC[C@@]4(CCN(c5cccc(C(=O)O)n5)C4)C3)nc12 [Compound 747]
DSF (Table B): ***** (>2.5° C.=*****)

Cc1cc(N2CC[C@](C)(c3ccc(F)c(Cl)c3)C2)cn2nc(C(=O)N3CC[C@@]4(CCN(c5cccc(C(=O)O)n5)C4)C3)nc12 [Compound 748]
DSF (Table B): ***** (>2.5° C.=*****)

Cc1cc(N2CC[C@](C)(c3ccccc3F)C2)cn2nc(C(=O)N3CC[C@@]4(CCN(c5cccc(C(=O)O)n5)C4)C3)nc12 [Compound 749]
DSF (Table B): ***** (>2.5° C.=*****)

Cc1ccc([C@@]2(C)CCN(c3cc(C)c4nc(C(=O)N5CC[C@@]6(CCN(c7cccc(C(=O)O)n7)C6)C5)nn4c3)C2)cc1 [Compound 750]
DSF (Table B): ***** (>2.5° C.=*****)

Cc1cc(N2CC[C@](C)(c3ccc(Cl)c(F)c3)C2)cn2nc(C(=O)N3CC[C@@]4(CCN(c5cccc(C(=O)O)n5)C4)C3)nc12 [Compound 751]
DSF (Table B): ***** (>2.5° C.=*****)

Cc1cc(N2CC(CF)(c3ccccc3)C2)cn2nc(C(=O)N3CC[C@@]4(CCN(c5cccc(C(=O)O)n5)C4)C3)nc12 [Compound 752, 6-[(5R)-2-[6-[3-(fluoromethyl)-3-phenyl-azetidin-1-yl]-8-methyl-[1,2,4]triazolo[1,5-a]pyridine-2-carbonyl]-2,7-diazaspiro[4.4]nonan-7-yl]pyridine-2-carboxylic acid]
DSF (Table B): ***** (>2.5° C.=*****)

Cc1cc(N2CC[C@](C)(c3cccc(F)c3)C2)cn2nc(C(=O)N3CC[C@@]4(CCN(c5cccc(C(=O)O)n5)C4)C3)nc12 [Compound 755]
DSF (Table B): ***** (>2.5° C.=*****)

Cc1cc(N2CC[C@](C)(c3ccccc3)C2)cc2nc(C(=O)N3CC[C@@]4(CCN(c5cccc(C(=O)O)n5)C4)C3)oc12 [Compound 756, 6-[(5R)-2-[7-methyl-5-[(3R)-3-methyl-3-phenyl-pyrrolidin-1-yl]-1,3-benzoxazole-2-carbonyl]-2,7-diazaspiro[4.4]nonan-7-yl]pyridine-2-carboxylic acid]
DSF (Table B): **** (>1.5-2.5° C.=****)

CNC(=O)c1nc2c(Cc3nc(CC(=O)O)n[nH]3)cc(N3CC[C@](C)(c4ccccc4)C3)cn2n1 [Compound 759, 2-[5-[[2-(methylcarbamoyl)-6-[(3R)-3-methyl-3-phenyl-pyrrolidin-1-yl]-[1,2,4]triazolo[1,5-a]pyridin-8-yl]methyl]-1H-1,2,4-triazol-3-yl]acetic acid]
DSF (Table B): **** (>1.5-2.5° C.=****)

CNC(=O)c1nc2c(C(F)F)cc(N3CC[C@](C)(c4ccccc4)C3)cn2n1 [Compound 760, (R)-8-(difluoromethyl)-N-methyl-6-(3-methyl-3-phenylpyrrolidin-1-yl)-[1,2,4]triazolo[1,5-a]pyridine-2-carboxamide]
DSF (Table B): ***** (>2.5° C.=*****)

Cc1cc(N2CC[C@](C)(c3ccccc3)C2)cn2nc(C(=O)N3CC[C@@H]4NC(=O)C[C@@H]43)nc12 [Compound 762]
DSF (Table B): ***** (>2.5° C.=*****)

Cc1cc(N2CC[C@@](C)(c3cccc(F)c3)C2)cn2nc(C(=O)N3CC[C@@]4(CCN(c5cccc(C(=O)O)n5)C4)C3)nc12 [Compound 763, 6-((R)-7-(6-((S)-3-(3-fluorophenyl)-3-methylpyrrolidin-1-yl)-8-methyl-[1,2,4]triazolo[1,5-a]pyridine-2-carbonyl)-2,7-diazaspiro[4.4]nonan-2-yl)picolinic acid]
DSF (Table B): ***** (>2.5° C.=*****)

CNC(=O)C1C2COC1(c1nc3c(C)cc(N4CC[C@](C)(c5ccccc5)C4)cn3n1)C2 (stereo partly drawn) [Example 72]
DSF (Table A): ***** (>2.5° C.=*****)
